Data set [1] deals with Rattus norvegicus. Description: AUC in rat assessed as (S)-5-(furo[3,2-b]pyridin-2-yl)-5-((6-methoxy-1-oxoisoindolin-2-yl)methyl)imidazolidine-2,4-dione level at 10 mg/kg, po by HPLC/MS analysis. The format is ADME, organism-based. The settings on record: in vivo.
A short description of data set [2]: AUC in monkey at 10 mg/kg, po by LC/MS/MS analysis. In kind it is ADME, organism-based, Macaca mulatta. The settings on record: rhesus monkey, in vivo.
Data set [3] can be described thus: Oral bioavailability in dog at 10 mg/kg by LC/MS/MS analysis. The settings on record: in vivo. In kind it is ADME, organism-based, Canis lupus familiaris.
A short description of data set [4]: Oral bioavailability in rat at 10 mg/kg by LC/MS/MS analysis. The format is ADME, organism-based. The settings on record: in vivo.
Data set [5] is described as follows: AUC in dog at 10 mg/kg, po by LC/MS/MS analysis. In kind it is ADME, organism-based, Canis lupus familiaris. The settings on record: in vivo.
Data set [6] is described as follows: Oral bioavailability in monkey at 10 mg/kg by LC/MS/MS analysis. In kind it is ADME, organism-based, Macaca mulatta. The settings on record: rhesus monkey, in vivo.
The nature of data set [7]: AUC in rat at 10 mg/kg, po by LC/MS/MS analysis. The format is ADME, organism-based. Conditions: in vivo.
Data set [8] in a line: AUC in rat at 10 mg/kg, po by HPLC/MS analysis. The format is ADME, organism-based. The settings on record: in vivo.
Data set [9] has as its target Disintegrin and metalloproteinase domain-containing protein 17 (Homo sapiens, UniProt P78536). Description: Inhibition of TACE in human whole blood assessed as inhibition of LPS-stimulated TNFalpha production pretreated for 1 hr followed by LPS stimulation for 3.5 hrs by ELISA. A general note: In an ELISA, binding on a coated surface is turned into a signal by an enzyme label.

The nature of data set [10]: AUC in rat at 300 mg/kg, po administered as single dose by LC/MS/MS analysis. The format is ADME, organism-based. Conditions: in vivo.
Data set [11] can be described thus: AUC in rat at 500 mg/kg, po administered as single dose by LC/MS/MS analysis. In kind it is ADME, organism-based. Conditions: in vivo.
Data set [12] is described as follows: AUC in rat at 100 mg/kg, po administered as single dose by LC/MS/MS analysis. In kind it is ADME, organism-based. The settings on record: in vivo.
Data set [13] is described as follows: Solubility of the compound at pH 6.5. The format is physicochemical. The settings on record: buffer.
Data set [14] in a line: Permeability in human Caco2 cells at pH 7.4. In kind it is ADME, cell-based. The settings on record: Caco-2, pH 7.4, read-out: permeability. Background: Caco-2 cells form a polarised layer with tight junctions and transporters.
Data set [15] concerns Liver. Put plainly: Prodrug activation in human liver microsomes assessed as (S)-5-(furo[3,2-b]pyridin-2-yl)-5-((6-methoxy-1-oxoisoindolin-2-yl)methyl)imidazolidine-2,4-dione formation. In kind it is microsome. (Microsomes from liver hold many membrane-bound enzymes, among them those of drug oxidation.)
In data set [16] the test system is Rattus norvegicus. Put plainly: Oral bioavailability in rat assessed as (S)-5-(furo[3,2-b]pyridin-2-yl)-5-((6-methoxy-1-oxoisoindolin-2-yl)methyl)imidazolidine-2,4-dione level at 10 mg/kg by LC/MS/MS analysis. The format is ADME, organism-based. Conditions: in vivo.
The subject of data set [17] is Liver. Description: Prodrug activation in mouse liver microsomes assessed as (S)-5-(furo[3,2-b]pyridin-2-yl)-5-((6-methoxy-1-oxoisoindolin-2-yl)methyl)imidazolidine-2,4-dione formation. The format is microsome.
Data set [18] relates to Rhesus monkey. Description: Oral bioavailability in monkey assessed as (S)-5-(furo[3,2-b]pyridin-2-yl)-5-((6-methoxy-1-oxoisoindolin-2-yl)methyl)imidazolidine-2,4-dione level by LC/MS/MS analysis. In kind it is ADME, organism-based, Macaca mulatta. Conditions: in vivo.
In data set [19] the test system is Liver. Put plainly: Prodrug activation in rat liver microsomes assessed as (S)-5-(furo[3,2-b]pyridin-2-yl)-5-((6-methoxy-1-oxoisoindolin-2-yl)methyl)imidazolidine-2,4-dione formation. The format is microsome.
In data set [20] the test system is Rattus norvegicus. Put plainly: AUC in rat assessed as (S)-5-(furo[3,2-b]pyridin-2-yl)-5-((6-methoxy-1-oxoisoindolin-2-yl)methyl)imidazolidine-2,4-dione level at 100 mg/kg, po administered as single dose by LC/MS/MS analysis. The format is ADME, organism-based. The settings on record: in vivo.
Data set [21] deals with Canis familiaris. Put plainly: Oral bioavailability in dog assessed as (S)-5-(furo[3,2-b]pyridin-2-yl)-5-((6-methoxy-1-oxoisoindolin-2-yl)methyl)imidazolidine-2,4-dione level by LC/MS/MS analysis. The format is ADME, organism-based, Canis lupus familiaris. Conditions: in vivo.
Data set [22] concerns Rattus norvegicus. Description: AUC in rat assessed as (S)-5-(furo[3,2-b]pyridin-2-yl)-5-((6-methoxy-1-oxoisoindolin-2-yl)methyl)imidazolidine-2,4-dione level at 300 mg/kg, po administered as single dose by LC/MS/MS analysis. The format is ADME, organism-based. Conditions: in vivo.
Data set [23] can be described thus: Prodrug activation in human intestinal microsomes assessed as (S)-5-(furo[3,2-b]pyridin-2-yl)-5-((6-methoxy-1-oxoisoindolin-2-yl)methyl)imidazolidine-2,4-dione formation. Also on record: species or system Intestine, Microsome.
Data set [24] in a line: Prodrug activation in monkey liver microsomes assessed as (S)-5-(furo[3,2-b]pyridin-2-yl)-5-((6-methoxy-1-oxoisoindolin-2-yl)methyl)imidazolidine-2,4-dione formation. The format is Macaca mulatta, microsome. The settings on record: rhesus monkey.
Data set [25] concerns Rattus norvegicus. Description: AUC in rat assessed as (S)-5-(furo[3,2-b]pyridin-2-yl)-5-((6-methoxy-1-oxoisoindolin-2-yl)methyl)imidazolidine-2,4-dione level at 500 mg/kg, po administered as single dose by LC/MS/MS analysis. The format is ADME, organism-based. Conditions: in vivo.
In data set [26] the test system is Liver. Put plainly: Prodrug activation in dog liver microsomes assessed as (S)-5-(furo[3,2-b]pyridin-2-yl)-5-((6-methoxy-1-oxoisoindolin-2-yl)methyl)imidazolidine-2,4-dione formation. In kind it is Canis lupus familiaris, microsome.
Data set [27] concerns Rattus norvegicus. Description: AUC in rat assessed as (S)-5-(5-(4-ethylpiperazin-1-yl)furo[3,2-b]pyridin-2-yl)-5-((7-fluoro-6-methoxy-1-oxoisoindolin-2-yl)methyl)imidazolidine-2,4-dione level at 10 mg/kg, po by LC/MS/MS analysis. The format is ADME, organism-based. Conditions: in vivo.
Data set [28] has as its system Rattus norvegicus. Description: Oral bioavailability in rat assessed as (S)-5-(5-(4-ethylpiperazin-1-yl)furo[3,2-b]pyridin-2-yl)-5-((7-fluoro-6-methoxy-1-oxoisoindolin-2-yl)methyl)imidazolidine-2,4-dione level at 10 mg/kg by LC/MS/MS analysis. The format is ADME, organism-based. Conditions: in vivo.

Here are results for 19 molecules from ChEMBL document CHEMBL4052764, “Development of a prodrug of hydantoin based TACE inhibitor” (Bioorg Med Chem Lett, 2017).

Values after ≈ are worked out from the molar mass of the structure shown.

As usually defined, the AUC is concentration integrated over time. What is called bioavailability is dose-corrected exposure relative to a reference, in per cent. Broadly, the IC50 is the concentration that gives 50% inhibition. What is called solubility is the dissolved amount per volume that the medium holds.

Sequence of Disintegrin and metalloproteinase domain-containing protein 17 (P78536 whole entry, the tested form may be a part): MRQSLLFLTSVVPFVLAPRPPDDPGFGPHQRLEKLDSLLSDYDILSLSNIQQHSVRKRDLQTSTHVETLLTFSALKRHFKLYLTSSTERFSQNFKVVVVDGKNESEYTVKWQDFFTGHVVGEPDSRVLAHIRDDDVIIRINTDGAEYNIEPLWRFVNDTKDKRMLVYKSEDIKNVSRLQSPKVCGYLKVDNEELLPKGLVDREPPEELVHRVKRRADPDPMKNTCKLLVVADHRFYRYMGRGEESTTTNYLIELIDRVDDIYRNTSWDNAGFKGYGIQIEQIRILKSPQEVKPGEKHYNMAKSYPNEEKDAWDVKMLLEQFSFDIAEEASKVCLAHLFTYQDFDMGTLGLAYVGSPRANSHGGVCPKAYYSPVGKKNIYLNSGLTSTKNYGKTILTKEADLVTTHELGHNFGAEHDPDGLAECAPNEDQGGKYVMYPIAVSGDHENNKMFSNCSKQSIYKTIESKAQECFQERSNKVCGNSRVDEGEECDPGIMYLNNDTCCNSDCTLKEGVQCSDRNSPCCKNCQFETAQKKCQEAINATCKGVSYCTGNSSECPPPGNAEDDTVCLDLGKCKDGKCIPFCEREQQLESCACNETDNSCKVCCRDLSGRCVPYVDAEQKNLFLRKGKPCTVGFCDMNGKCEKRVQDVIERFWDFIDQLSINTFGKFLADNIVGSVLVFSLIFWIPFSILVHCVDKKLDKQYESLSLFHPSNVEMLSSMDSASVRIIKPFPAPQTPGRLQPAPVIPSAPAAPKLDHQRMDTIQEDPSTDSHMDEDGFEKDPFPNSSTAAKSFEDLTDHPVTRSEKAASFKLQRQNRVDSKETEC

Take `CCN1C(=O)N[C@@](CN2Cc3ccc(OC)cc3C2=O)(c2cc3ncccc3o2)C1=O`: in data set [1], the AUC came out at 0.9 µM·h.

With `COc1ccc2c(c1)C(=O)N(C[C@@]1(c3cc4ncccc4o3)NC(=O)NC1=O)C2.[Na+]`, the AUC in [2] stood at 5.2 µM·h; in data set [5] it was 41 µM·h; in [7], 10 µM·h. For the same molecule, the bioavailability in data set [3] was 82%; in [4], 35%; in [6] it was 46%.

Take `COc1ccc2c(c1)C(=O)N(C[C@@]1(c3cc4ncccc4o3)NC(=O)NC1=O)C2`: the AUC in data set [8] came to 8.6 µM·h; in [10] it was 130 µM·h; in [11] it was 240 µM·h; in [12] it was 120 µM·h. Moreover, in data set [9], the IC50 was found to be 287 nM. Besides, the concentration in solution in data set [13] (solubility) came to 39 µM (≈ 15.3 µg/mL). The Papp in data set [14] came out at 1.2 ×10⁻⁶ cm/s.

As for `COc1ccc2c(c1)C(=O)N(C[C@@]1(c3cc4ncccc4o3)NC(=O)N(COC(=O)c3ccccc3OC(C)=O)C1=O)C2`, in [1], the AUC was 4.4 µM·h. The half-inhibitory concentration (IC50) in [9] is 560 nM.

Take `COc1ccc2c(c1)C(=O)N(C[C@@]1(c3cc4ncccc4o3)NC(=O)N(COC(=O)C(C)(C)C)C1=O)C2`: the AUC is 13.1 µM·h in [1], 210 µM·h in data set [20], 780 µM·h in data set [22] and 1450 µM·h in [25]. In addition, the Drug metabolism entry in data set [15], in data set [17], in [19], in data set [23], in data set [24] and in [26] was “Metabolite_Detected” in each case. Also, the F in data set [16] was determined as 74%; in data set [18] it was 92%; in data set [21] it was 72%. Further, the IC50 in data set [9] was determined as 281 nM. In data set [13], this molecule came in with a solubility of 175 µM (≈ 88.6 µg/mL). For the same molecule, the Papp in data set [14] was above 11.6 ×10⁻⁶ cm/s.

Regarding `CCOP(=O)(OCC)OCN1C(=O)N[C@@](CN2Cc3ccc(OC)cc3C2=O)(c2cc3ncccc3o2)C1=O`, the AUC in data set [1] is 0.05 µM·h.

In the case of `COc1ccc2c(c1F)C(=O)N(C[C@@]1(c3cc4nc(N5CCNC(=O)C5)ccc4o3)NC(=O)N(COC(=O)C(C)(C)C)C1=O)C2`, in data set [1], the exposure (AUC) amounted to 0.6 µM·h. Besides, the IC50 in [9] stood at 104 nM.

For `COc1ccc2c(c1F)C(=O)N(C[C@@]1(c3cc4nc(-c5cn[nH]c5)ccc4o3)NC(=O)N(COC(=O)C(C)(C)C)C1=O)C2`, the AUC in data set [1] came out at 0.3 µM·h. In addition, the IC50 in data set [9] came out at 141 nM.

`COc1ccc2c(c1F)C(=O)N(C[C@@]1(c3cc4nc(N)ccc4o3)NC(=O)N(COC(=O)C(C)(C)C)C1=O)C2`: the AUC in [1] is 0.4 µM·h. In addition, the IC50 in data set [9] stood at 178 nM.

As to `COCCOCCOCCN1C(=O)N[C@@](CN2Cc3ccc(OC)cc3C2=O)(c2cc3ncccc3o2)C1=O`, the AUC in data set [1] is 0.02 µM·h.

`COc1ccc2c(c1)C(=O)N(C[C@@]1(c3cc4nc(N5CC[C@@H](O)C5)ccc4o3)NC(=O)N(COC(=O)C(C)(C)C)C1=O)C2`: the AUC in [1] amounted to 2.7 µM·h. For the same molecule, in data set [9], the IC50 worked out at 339 nM.

In the case of `CCN1CCN(c2ccc3oc([C@]4(CN5Cc6ccc(OC)cc6C5=O)NC(=O)N(COC(=O)C(C)(C)C)C4=O)cc3n2)CC1`, the AUC in data set [1] was 0.7 µM·h. In addition, the IC50 in data set [9] was 176 nM.

On to `COc1ccc2c(c1)C(=O)N(C[C@]1(c3cc4ncccc4o3)C(=O)N(COC(=O)C(C)(C)C)C(=O)N1COC(=O)C(C)(C)C)C2`, for which the AUC in data set [1] was determined as 3.1 µM·h.

In the case of `COc1ccc2c(c1)C(=O)N(C[C@@]1(c3cc4ncccc4o3)NC(=O)N(C(C)C)C1=O)C2`, the AUC in data set [1] was found to be 0.4 µM·h. Moreover, the IC50 in data set [9] amounted to 7150 nM.

In the case of `COc1ccc2c(c1)C(=O)N(C[C@@]1(c3cc4ncccc4o3)NC(=O)N(C)C1=O)C2`, the AUC in data set [1] was determined as 0.9 µM·h.

Take `COc1ccc2c(c1)C(=O)N(C[C@@]1(c3cc4nc(N5CCCNC5=O)ccc4o3)NC(=O)N(COC(=O)C(C)(C)C)C1=O)C2`: the AUC in data set [1] came out at 0.2 µM·h. In data set [9], the concentration for half-maximal inhibition (IC50) came to 282 nM.

As for `COc1ccc2c(c1F)C(=O)N(C[C@@]1(c3cc4nc(N5CCN(C)CC5)ccc4o3)NC(=O)N(COC(=O)C(C)(C)C)C1=O)C2`, the AUC in data set [1] came to 8.6 µM·h. The concentration for half-maximal inhibition (IC50) in data set [9] turned out to be 92 nM.

For the molecule `CCN1CCN(c2ccc3oc([C@]4(CN5Cc6ccc(OC)c(F)c6C5=O)NC(=O)N(COC(=O)C(C)(C)C)C4=O)cc3n2)CC1`, the figures for the AUC in data set [1] and in data set [27] were 20 µM·h and 4.7 µM·h, respectively. Further, the IC50 in data set [9] is 61 nM. Moreover, the F in data set [28] came to 7%.

Consider `COc1ccc2c(c1)C(=O)N(C[C@@]1(c3cc4nc(N5CCNCC5)ccc4o3)NC(=O)N(COC(=O)C(C)(C)C)C1=O)C2`, for which the IC50 in data set [9] worked out at 156 nM.
